Reference: patent publication US8344008B2 (Janssen Pharmaceutica NV, priority 2007, dated 2013)

Target: T1, recombinant human LTA4 hydrolase (rhLTA4H) (Homo sapiens, UniProt P09960)
T1 construct: made in house; host or cells: Spodoptera frugiperda (Sf-9) cells, baculovirus (pFastBac1)
T1 sequence (P09960 1-611): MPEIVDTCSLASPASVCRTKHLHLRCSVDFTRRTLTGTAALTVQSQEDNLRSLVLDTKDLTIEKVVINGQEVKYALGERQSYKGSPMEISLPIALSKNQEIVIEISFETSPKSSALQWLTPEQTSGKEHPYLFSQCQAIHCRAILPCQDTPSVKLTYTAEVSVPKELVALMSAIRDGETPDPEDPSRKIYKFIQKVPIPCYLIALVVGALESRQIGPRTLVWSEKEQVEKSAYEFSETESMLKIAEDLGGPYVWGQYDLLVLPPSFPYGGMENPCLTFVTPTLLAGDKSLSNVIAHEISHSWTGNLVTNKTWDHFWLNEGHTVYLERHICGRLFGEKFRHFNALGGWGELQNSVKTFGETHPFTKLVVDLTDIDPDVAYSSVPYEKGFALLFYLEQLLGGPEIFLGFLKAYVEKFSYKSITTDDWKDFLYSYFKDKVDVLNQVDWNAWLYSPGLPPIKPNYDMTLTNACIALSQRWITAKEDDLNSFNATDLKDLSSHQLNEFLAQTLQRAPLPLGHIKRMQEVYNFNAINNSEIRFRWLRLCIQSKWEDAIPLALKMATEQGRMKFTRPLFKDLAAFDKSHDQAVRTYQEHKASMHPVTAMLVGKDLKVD
Test: Recombinant Human LTA4 Hydrolase Assay for LTA4 Hydrolase Inhibitor Activity
Type: biochemical
Conditions: average of results obtained; LTB4 quantified by enzyme-linked immunoassay
Summary of the method: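 LTB4 formation, quantified by EIA after 10 min at rt, was the read-out once 9 ng LTA4 (free acid) was added to recombinant human enzyme (36 ng, Sf-9 expressed) that had sat 10 min with compound. Buffer: 0.1 M potassium phosphate pH 7.4 with fatty-acid-free BSA; IC50 by 4-parameter fit.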

Ki [nM] | Compound
360 | CC(=O)N1[C@@H]2CC[C@H]1C[C@H](NCCOc1ccc(Oc3nc4ccc(Cl)cc4s3)cc1)C2 [Example 268, meso-exo-1-(3-{2-[4-(6-Chloro-benzothiazol-2-yloxy)-phenoxy]-ethylamino}-8-aza-bicyclo[3.2.1]oct-8-yl)-ethanone]
72 | CC(=O)N1C[C@@H]2C[C@H]1CN2Cc1ccc(Oc2nc3ccc(C)cc3s2)cc1 [Example 270, (S,S)-1-{5-[4-(6-Methyl-benzothiazol-2-yloxy)-benzyl]-2,5-diaza-bicyclo[2.2.1]hept-2-yl}-ethanone]
79 | CC(=O)N[C@H]1C[C@H]2CC[C@@H](C1)N2CCOc1ccc(Oc2nc3ccc(C)cc3s2)cc1 [Example 271]
38 | CC(=O)N[C@@H]1C[C@H]2CC[C@@H](C1)N2Cc1ccc(Oc2nc3cc(Cl)ccc3s2)cc1 [Example 276, meso-exo-N-{8-[4-(5-Chloro-benzothiazol-2-yloxy)-benzyl]-8-aza-bicyclo[3.2.1]oct-3-yl}-acetamide]
17 | CS(=O)(=O)N[C@H]1C[C@H]2CC[C@@H](C1)N2CCc1ccc(Oc2nc3ccc(F)cc3s2)cc1 [Example 277, meso-endo-N-(8-{2-[4-(6-Fluoro-benzothiazol-2-yloxy)-phenyl]-ethyl}-8-aza-bicyclo[3.2.1]oct-3-yl)-methanesulfonamide]
1740 | NC(=O)N[C@H]1C[C@H]2CC[C@@H](C1)N2CCOc1ccc(Oc2nc3cccc(Cl)c3s2)cc1 [Example 278, meso-endo-(8-{2-[4-(7-Chloro-benzothiazol-2-yloxy)-phenoxy]-ethyl}-8-aza-bicyclo[3.2.1]oct-3-yl)-urea]
11 | NC(=O)N1C[C@H]2C[C@@H]1CN2CCc1ccc(Oc2nc3ccccc3s2)cc1 [Example 280, (R,R)-5-{2-[4-(Benzothiazol-2-yloxy)-phenyl]-ethyl}-2,5-diaza-bicyclo[2.2.1]heptane-2-carboxylic acid amide]
338 | CC(=O)N1CC2CCC(C1)N2CCOc1ccc(Oc2nc3cccc(Cl)c3s2)cc1 [Example 283, meso-1-(8-{2-[4-(7-Chloro-benzothiazol-2-yloxy)-phenoxy]-ethyl}-3,8-diaza-bicyclo[3.2.1]oct-3-yl)-ethanone]
29 | CS(=O)(=O)N[C@@H]1C[C@H]2CC[C@@H](C1)N2CCOc1ccc(Oc2nc3ccc(F)cc3s2)cc1 [Example 284, meso-exo-N-(8-{2-[4-(6-Fluoro-benzothiazol-2-yloxy)-phenoxy]-ethyl}-8-aza-bicyclo[3.2.1]oct-3-yl)-methanesulfonamide]

The remaining lines, values behind:

Compound | Ki [nM]
CC(=O)N1[C@@H]2CC[C@H]1C[C@H](NCCOc1ccc(Oc3nc4cccc(F)c4s3)cc1)C2 [Example 263, meso-exo-1-(3-{2[4-(7-Fluoro-benzothiazole-2-yloxy)-phenoxy]-ethylamino}8-aza-bicyclo[3.2.1]oct-8-yl)-ethanone] | 190
CC(=O)N1C[C@@H]2C[C@H]1CN2CCOc1ccc(Oc2nc3cc(Cl)ccc3s2)cc1 [Example 264, (S,S)-1-(5-{2-[4-(5-Chloro-benzothiazole-2-yloxy)-phenoxy]-ethyl}-2,5-diaza-bicyclo[2.2.1]hept-2-yl)-ethanone] | 212
CS(=O)(=O)N[C@@H]1C[C@H]2CC[C@@H](C1)N2CCOc1ccc(Oc2nc3cc(Cl)ccc3s2)cc1 [Example 265, meso-exo-N-(8-{2-[4-(5-Chloro-benzothiazol-2-yloxy)-phenoxy]-ethyl}-8-aza-bicyclo[3.2.1]oct-3-yl)-methanesulfonamide] | 310
CC(=O)N[C@@H]1C[C@H]2CC[C@@H](C1)N2CCc1ccc(Oc2nc3cc(F)ccc3s2)cc1 [Example 266, meso-exo-N-(8-{2-[4-(5-Fluoro-benzothiazol-2-yloxy)-phenyl]-ethyl}-8-aza-bicyclo[3.2.1]oct-3-yl)-acetamide] | 64
NC(=O)N1[C@@H]2CC[C@H]1C[C@H](NCCOc1ccc(Oc3nc4ccc(F)cc4s3)cc1)C2 [Example 267, meso-exo-3-{2-[4.(6-Fluoro-benzothiazol-2-yloxy)-phenoxy]-ethylamino}-8-aza-bicyclo[3.2.1]octane-8-carboxylic acid amide] | 296
Cc1ccc2nc(Oc3ccc(CCN[C@@H]4C[C@H]5CC[C@@H](C4)N5S(C)(=O)=O)cc3)sc2c1 [Example 269, meso-exo-(8-Methanesulfonyl-8-aza-bicyclo[3.2.1]oct-3-yl)-{2-[4-(6-methyl-benxothiazol-2-yloxy)-phenyl]-ethyl}-amine] | 630
CC(=O)N[C@@H]1C[C@H]2CC[C@@H](C1)N2Cc1ccc(Oc2nc3ccc(F)cc3s2)cc1 [Example 272, meso-exo-N-{8-[4-(6-Fluoro-benzothiazol-2-yloxy)-benzyl]-8-aza-bicyclo[3.2.1]oct-3-yl}-acetamide] | 6
CC(=O)N[C@H]1C[C@H]2CC[C@@H](C1)N2CCOc1ccc(Oc2nc3c(F)cccc3s2)cc1 [Example 273, meso-endo-N-(8-{2-[4-(4-Fluoro-benzothiazol-2-yloxy)-phenoxy]-ethyl}-8-aza-bicyclo[3.2.1]oct-3-yl)-acetamide] | 16
CC(=O)N1C[C@H]2C[C@@H]1CN2CCc1ccc(Oc2nc3cc(Cl)ccc3s2)cc1 [Example 274, (R,R)-1-(5-{2-[4-(5-Chloro-benzothiazol-2-yloxy)-phenyl]-ethyl}-2,5-diaza-bicyclo[2.2.1]hept-2-yl)-ethanone] | 121
CC(=O)N1[C@@H]2CC[C@H]1C[C@H](NCCc1ccc(Oc3nc4c(Cl)cccc4s3)cc1)C2 [Example 275, meso-exo-1-(3-{2-[4-(4-Chloro-benzothiazol-2-yloxy)-phenyl]-ethylamino}-8-aza-bicyclo[3.2.1]oct-8-yl)-ethanone] | 264
CS(=O)(=O)N1[C@@H]2CC[C@H]1C[C@@H](NCCc1ccc(Oc3nc4c(F)cccc4s3)cc1)C2 [Example 279, meso-endo-{2-[4-(4-Fluoro-benzothiazol-2-yloxy)-phenyl]-ethyl}-(8-methanesulfonyl-8-aza-bicyclo[3.2.1]oct-3-yl)-amine] | 21
CS(=O)(=O)N1CC2CCC(C1)N2CCc1ccc(Oc2nc3c(Cl)cccc3s2)cc1 [Example 281, meso-4-Chloro-2-{4-[2-(3-methanesulfonyl-3,8-diaza-bicyclo[3.2.1]oct-8-yl)-ethyl]-phenoxy}-benzothiazole] | 2040
NC(=O)N[C@@H]1C[C@H]2CC[C@@H](C1)N2CCOc1ccc(Oc2nc3cccc(F)c3s2)cc1 [Example 282, meso-exo-(8-{2-[4-(7-Fluoro-benzothiazol-2-yloxy)-phenoxy]-ethyl}-8-aza-bicyclo[3.2.1]oct-3-yl)-urea] | 8
meso-endo-[4-(6-Chloro-benzothiazol-2-yloxy)-benzyl]-(8-methanesulfonyl-8-aza-bicyclo[3.2.1]oct-3-yl)-amine [Example 228] | 1590

Tested on: LTB4 production
Test: not given
Conditions: oral administration; mouse blood ex vivo; cited from earlier work

Compound | inhibition of ionophore-induced LTB4 production
CN(CCCOc1ccc(Cc2ccccc2)cc1)CCC(=O)O.Cl [SC57461] | caused inhibition

Tested on: LTB4 production
Test: not given
Conditions: oral administration; rat peritoneum in vivo; cited from earlier work

Compound | inhibition of ionophore-induced LTB4 production
CN(CCCOc1ccc(Cc2ccccc2)cc1)CCC(=O)O.Cl [SC57461] | caused inhibition

Tested on: colitis symptoms
Test: not given
Conditions: eight weeks of treatment; cotton top tamarins; cited from earlier work

Compound | colitis symptoms
CN(CCCOc1ccc(Cc2ccccc2)cc1)CCC(=O)O.Cl [SC57461] | significantly improved colitis symptoms
